Source: US20080009418A1, “Selective Inhibitors” (Alchemia LTD., priority 2004, published 2008)

Experiments:
[1] = molecular target: T1, Human melanin-concentrating hormone (MCH1) (Homo sapiens, UniProt Q99705); assay: Radioligand binding, human melanin-concentrating hormone MCH1 membranes, FlashPlate, [125I]-S36057; settings: compound at 10 μM, [125I]-S36057, human MCH1 membranes
T1 construct: purchased Perkin Elmer Biosignal
In short: (§1)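 Cloned human receptor membranes were coated onto FlashPlate wells and incubated with radioligand and compound (added from a 0.5 mM DMSO daughter plate) for 1 hour at room temperature in the dark. Scintillation counting gave percent inhibition, with DMSO defining total and reference ligand defining non-specific binding.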

[2] = molecular target: T2, Human melanocortin (MC5) (Homo sapiens, UniProt P33032); assay: Radioligand binding, human melanocortin MC5 membranes, FlashPlate, [125I]-NDP-αMSH; settings: compound at 10 μM; [125I]-NDP-αMSH, human MC5 membranes
T2 construct: purchased Perkin Elmer Biosignal
In short: as §1

[3] = molecular target: T3, Human neuropeptide Y (NPY-Y1) (Homo sapiens, UniProt P25929); assay: Radioligand binding, human neuropeptide Y NPY-Y1 membranes, FlashPlate, [125I]-PYY; settings: compound at 10 μM; [125I]-PYY, human NPY-Y1 membranes
T3 construct: purchased Perkin Elmer Biosignal
T3 sequence (P25929 1-384): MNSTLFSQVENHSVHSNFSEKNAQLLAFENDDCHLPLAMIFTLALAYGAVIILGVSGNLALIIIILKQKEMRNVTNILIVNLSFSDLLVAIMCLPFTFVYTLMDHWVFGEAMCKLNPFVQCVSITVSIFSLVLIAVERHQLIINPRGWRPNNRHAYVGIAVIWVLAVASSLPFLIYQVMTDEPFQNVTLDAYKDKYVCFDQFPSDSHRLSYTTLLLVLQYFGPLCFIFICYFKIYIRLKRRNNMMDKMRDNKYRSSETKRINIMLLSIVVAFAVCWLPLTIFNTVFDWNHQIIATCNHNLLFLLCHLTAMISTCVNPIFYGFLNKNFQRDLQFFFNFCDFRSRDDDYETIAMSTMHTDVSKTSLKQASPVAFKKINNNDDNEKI
In short: as §1

[4] = molecular target: T4, Mouse urotensin (mUR2) (Mus musculus, UniProt Q8VIH9); assay: Radioligand binding, mouse urotensin mUR2 membranes, FlashPlate, [125I]-Urotensin II; settings: compound at 10 μM; [125I]-Urotensin II, mouse mUR2 membranes
T4 construct: purchased Perkin Elmer Biosignal
T4 sequence (Q8VIH9 1-385): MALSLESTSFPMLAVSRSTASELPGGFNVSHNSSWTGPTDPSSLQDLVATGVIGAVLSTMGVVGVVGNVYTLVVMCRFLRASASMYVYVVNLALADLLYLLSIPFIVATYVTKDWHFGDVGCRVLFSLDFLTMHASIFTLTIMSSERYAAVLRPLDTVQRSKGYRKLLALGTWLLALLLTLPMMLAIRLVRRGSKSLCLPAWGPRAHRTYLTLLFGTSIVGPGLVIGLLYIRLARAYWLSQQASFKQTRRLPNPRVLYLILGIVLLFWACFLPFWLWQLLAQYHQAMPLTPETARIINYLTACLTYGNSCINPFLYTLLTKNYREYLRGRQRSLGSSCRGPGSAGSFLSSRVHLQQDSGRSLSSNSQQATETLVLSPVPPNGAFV
In short: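 Cloned mouse urotensin (mUR2) receptor membranes from Perkin Elmer Biosignal were immobilized in FlashPlate microplates using a proprietary coating. Each well got 19.5 μl buffer, then 0.5 μl of DMSO, reference ligand, or compound. Adding 5 μl of [125I]-Urotensin II, diluted to 5× final concentration in binding buffer, started binding. Plates were sealed with TopSeal-A and incubated 1 hour at room temperature in the dark. Wells were counted for 30 seconds each on a TopCount after a 60-second delay, and percentage inhibition was calculated.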

[5] = molecular target: T5, Human neurokinin (NK1) (Homo sapiens, UniProt P25103); assay: Radioligand binding, human neurokinin NK1 membranes, filtration, [125I]-Substance P; settings: compound at 10 μM; [125I]-Substance P, human NK1 membranes
T5 construct: purchased Perkin Elmer Biosignal
In short: (§2)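 Percent inhibition of radioligand binding measured on recombinant human membranes: NK1 with [125I]-Substance P, KOP with [3H]-Diprenorphine. Incubation 1 h at room temperature, then harvest onto 0.3% PEI-soaked filters, cold Tris-HCl pH 7.4 washes and scintillation counting; non-specific binding from reference ligand wells.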

[6] = molecular target: T6, Human Melanocortin (MC4) (Homo sapiens, UniProt P32245); assay: Radioligand binding, human melanocortin MC4 membranes, FlashPlate, [125I]-NDP-αMSH; settings: compound at 10 μM, [125I]-NDP-αMSH, human MC4 membranes
T6 construct: purchased Perkin Elmer Biosignal
In short: as §1

[7] = molecular target: T7, Human Melanocortin (MC3) (Homo sapiens, UniProt P41968); assay: Radioligand binding, human melanocortin MC3 membranes, FlashPlate, [125I]-NDP-αMSH; settings: compound at 10 μM, [125I]-NDP-αMSH, human MC3 membranes
T7 construct: purchased Perkin Elmer Biosignal
In short: as §1

[8] = molecular target: T8, Human opioid (ORL1) (Homo sapiens, UniProt P41146); assay: Radioligand binding, human opioid ORL1 membranes, FlashPlate, [125I]-Nociceptin; settings: compound at 10 μM; [125I]-Nociceptin, human ORL1 membranes; 10 µM
T8 construct: purchased Perkin Elmer Biosignal
In short: as §1

[9] = molecular target: T9, Human κ-Opioid (KOP) (Homo sapiens, UniProt P41145); assay: Radioligand binding, human κ-opioid (KOP) membranes, filtration, [3H]-Diprenorphine; settings: compound at 10 μM, [3H]-Diprenorphine, human KOP membranes
T9 construct: purchased Perkin Elmer Biosignal
In short: as §2

[10] = molecular target: T10, Human μ-opioid (MOP) (Homo sapiens, UniProt P35372); assay: Radioligand binding, human μ-opioid (MOP) membranes, FlashPlate, [3H]-Naloxone; settings: compound at 10 μM, [3H]-Naloxone, human MOP membranes
T10 construct: purchased Perkin Elmer Biosignal
In short: as §1

[11] = molecular target: T11, Human δ-opioid (DOP) (Homo sapiens, UniProt P41143); assay: Radioligand binding, human δ-opioid (DOP) membranes, FlashPlate, [3H]-Bremazocine; settings: compound at 10 μM; [3H]-Bremazocine, human DOP membranes
T11 construct: purchased Perkin Elmer Biosignal
In short: as §1

T2 sequence (P33032 whole entry): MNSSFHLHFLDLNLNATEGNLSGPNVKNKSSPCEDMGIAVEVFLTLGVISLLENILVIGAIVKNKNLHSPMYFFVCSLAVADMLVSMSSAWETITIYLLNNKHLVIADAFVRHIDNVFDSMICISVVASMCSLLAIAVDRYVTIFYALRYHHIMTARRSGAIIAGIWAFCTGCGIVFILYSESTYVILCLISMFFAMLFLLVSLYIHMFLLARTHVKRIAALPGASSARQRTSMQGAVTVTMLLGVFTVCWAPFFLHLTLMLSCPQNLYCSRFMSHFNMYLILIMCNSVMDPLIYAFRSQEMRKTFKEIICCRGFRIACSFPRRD
T1 sequence (Q99705 whole entry): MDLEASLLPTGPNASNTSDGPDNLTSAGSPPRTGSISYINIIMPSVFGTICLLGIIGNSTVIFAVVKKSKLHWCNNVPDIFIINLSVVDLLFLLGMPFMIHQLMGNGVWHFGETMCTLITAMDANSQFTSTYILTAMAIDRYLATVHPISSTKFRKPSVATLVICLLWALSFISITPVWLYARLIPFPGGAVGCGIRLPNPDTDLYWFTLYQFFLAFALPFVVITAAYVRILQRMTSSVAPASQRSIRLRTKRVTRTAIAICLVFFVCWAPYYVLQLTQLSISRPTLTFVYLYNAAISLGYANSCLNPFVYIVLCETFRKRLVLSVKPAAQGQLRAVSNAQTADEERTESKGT
T9 sequence (P41145 whole entry): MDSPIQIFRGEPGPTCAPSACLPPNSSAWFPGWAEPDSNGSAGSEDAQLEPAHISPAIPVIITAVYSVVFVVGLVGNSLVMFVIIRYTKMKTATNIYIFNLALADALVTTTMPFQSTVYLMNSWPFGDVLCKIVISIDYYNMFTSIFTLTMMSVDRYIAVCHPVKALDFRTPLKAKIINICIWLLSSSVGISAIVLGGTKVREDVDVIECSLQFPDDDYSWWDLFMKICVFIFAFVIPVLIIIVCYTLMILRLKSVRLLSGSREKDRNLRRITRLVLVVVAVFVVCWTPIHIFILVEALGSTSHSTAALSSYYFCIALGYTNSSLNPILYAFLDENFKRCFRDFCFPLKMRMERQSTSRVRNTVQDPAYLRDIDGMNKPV
T6 sequence (P32245 whole entry): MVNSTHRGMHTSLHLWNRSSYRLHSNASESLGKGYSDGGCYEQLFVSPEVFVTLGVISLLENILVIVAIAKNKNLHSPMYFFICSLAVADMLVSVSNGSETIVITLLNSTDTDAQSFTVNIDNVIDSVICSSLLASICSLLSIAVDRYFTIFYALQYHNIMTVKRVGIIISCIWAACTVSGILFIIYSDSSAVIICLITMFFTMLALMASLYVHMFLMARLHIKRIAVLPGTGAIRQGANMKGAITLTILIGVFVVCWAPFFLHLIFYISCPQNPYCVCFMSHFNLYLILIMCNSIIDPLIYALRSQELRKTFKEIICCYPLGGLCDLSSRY
T8 sequence (P41146 whole entry): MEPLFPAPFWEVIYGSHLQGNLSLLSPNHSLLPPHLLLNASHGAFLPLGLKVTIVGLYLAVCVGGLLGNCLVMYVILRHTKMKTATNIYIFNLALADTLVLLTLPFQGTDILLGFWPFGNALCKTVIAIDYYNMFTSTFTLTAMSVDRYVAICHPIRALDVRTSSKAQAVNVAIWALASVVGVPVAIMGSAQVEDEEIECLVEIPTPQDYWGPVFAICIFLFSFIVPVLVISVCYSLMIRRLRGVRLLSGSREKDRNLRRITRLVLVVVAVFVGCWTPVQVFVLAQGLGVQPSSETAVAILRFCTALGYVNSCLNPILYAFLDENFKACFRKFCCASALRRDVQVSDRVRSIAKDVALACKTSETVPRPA
T5 sequence (P25103 whole entry): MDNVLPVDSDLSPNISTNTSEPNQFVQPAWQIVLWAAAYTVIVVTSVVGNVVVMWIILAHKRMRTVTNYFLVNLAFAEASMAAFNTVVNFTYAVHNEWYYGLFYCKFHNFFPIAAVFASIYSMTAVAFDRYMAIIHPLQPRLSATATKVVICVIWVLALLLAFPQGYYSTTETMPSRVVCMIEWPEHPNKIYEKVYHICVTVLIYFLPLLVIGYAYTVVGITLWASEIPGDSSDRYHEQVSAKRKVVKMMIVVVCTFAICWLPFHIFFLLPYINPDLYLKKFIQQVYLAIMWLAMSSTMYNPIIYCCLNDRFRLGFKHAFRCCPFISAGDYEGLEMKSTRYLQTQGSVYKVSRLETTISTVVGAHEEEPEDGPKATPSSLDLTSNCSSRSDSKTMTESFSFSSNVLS
T7 sequence (P41968 whole entry): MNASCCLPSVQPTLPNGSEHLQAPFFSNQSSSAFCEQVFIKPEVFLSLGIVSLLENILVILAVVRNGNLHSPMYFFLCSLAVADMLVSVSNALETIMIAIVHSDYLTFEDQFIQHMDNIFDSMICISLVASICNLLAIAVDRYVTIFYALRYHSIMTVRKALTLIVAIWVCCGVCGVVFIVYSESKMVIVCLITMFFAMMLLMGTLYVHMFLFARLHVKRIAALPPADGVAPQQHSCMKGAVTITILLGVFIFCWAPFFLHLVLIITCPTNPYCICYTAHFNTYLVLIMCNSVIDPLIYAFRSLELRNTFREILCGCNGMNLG
T11 sequence (P41143 whole entry): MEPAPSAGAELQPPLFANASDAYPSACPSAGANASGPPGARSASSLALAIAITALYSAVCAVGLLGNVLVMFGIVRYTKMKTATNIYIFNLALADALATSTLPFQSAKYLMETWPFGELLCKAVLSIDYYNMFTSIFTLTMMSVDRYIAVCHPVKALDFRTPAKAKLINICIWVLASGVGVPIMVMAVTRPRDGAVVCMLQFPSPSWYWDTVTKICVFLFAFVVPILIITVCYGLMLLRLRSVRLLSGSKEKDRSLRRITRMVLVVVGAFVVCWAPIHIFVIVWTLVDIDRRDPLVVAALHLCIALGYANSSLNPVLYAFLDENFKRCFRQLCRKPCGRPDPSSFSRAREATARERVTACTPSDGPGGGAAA
T10 sequence (P35372 whole entry): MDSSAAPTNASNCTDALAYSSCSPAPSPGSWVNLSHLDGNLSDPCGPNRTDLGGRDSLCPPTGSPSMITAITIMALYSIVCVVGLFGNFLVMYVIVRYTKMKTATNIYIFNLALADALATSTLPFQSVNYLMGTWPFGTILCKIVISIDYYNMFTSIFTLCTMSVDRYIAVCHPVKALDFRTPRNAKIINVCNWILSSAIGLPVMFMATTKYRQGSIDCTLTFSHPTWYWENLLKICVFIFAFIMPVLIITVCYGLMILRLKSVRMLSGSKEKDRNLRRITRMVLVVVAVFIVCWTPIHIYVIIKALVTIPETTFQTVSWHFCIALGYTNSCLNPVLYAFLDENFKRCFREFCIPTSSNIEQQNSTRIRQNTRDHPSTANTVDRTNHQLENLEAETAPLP

Row | SMILES | A6: inhibition of radioligand binding [1] | A5: inhibition of radioligand binding [2] | A9: inhibition of radioligand binding [3] | A11: inhibition of radioligand binding [4] | A8: inhibition of radioligand binding [5] | A4: inhibition of radioligand binding ([6]; 10 µM) | A3: inhibition of radioligand binding ([7]; 10 µM) | A10: inhibition of radioligand binding [8] | A2: inhibition of radioligand binding [9] | A7: inhibition of radioligand binding [10] | A1: inhibition of radioligand binding [11] | A6: inhibition of radioligand binding ([1]; 10 µM) | A4: inhibition of radioligand binding [6] | A3: inhibition of radioligand binding [7] | A2: inhibition of radioligand binding ([9]; 10 µM) | A7: inhibition of radioligand binding ([10]; 10 µM)
1 | NCCCC(=O)NC1C(OCc2ccc3ccccc3c2)OC(COCc2ccccc2)C(O)C1OCc1ccc2ccccc2c1 (stereo not shown) [compound 394] | − (“−” indicates less than 50% inhibition at 10 μM) | + (“+” indicates greater than 50% inhibition at 10 μM) | − (“−” indicates less than 50% inhibition at 10 μM) | − (“−” indicates less than 50% inhibition at 10 μM) | + (“+” indicates greater than 50% inhibition at 10 μM) | + (“+” indicates greater than 50% inhibition at 10 μM) | + (“+” indicates greater than 50% inhibition at 10 μM) | − (“−” indicates less than 50% inhibition at 10 μM) | − (“−” indicates less than 50% inhibition at 10 μM) | − (“−” indicates less than 50% inhibition at 10 μM) | − (“−” indicates less than 50% inhibition at 10 μM) |  |  |  |  | 
2 | NCCCC(=O)NC1C(OCc2ccc3ccccc3c2)OC(COCc2ccc(Cl)cc2)C(O)C1OCc1ccc2ccccc2c1 (stereo not shown) [compound 395] |  | + (“+” indicates greater than 50% inhibition at 10 μM) | − (“−” indicates less than 50% inhibition at 10 μM) | − (“−” indicates less than 50% inhibition at 10 μM) | + (“+” indicates greater than 50% inhibition at 10 μM) |  |  | + (“+” indicates greater than 50% inhibition at 10 μM) |  | − (“−” indicates less than 50% inhibition at 10 μM) | − (“−” indicates less than 50% inhibition at 10 μM) | − (“−” indicates less than 50% inhibition at 10 μM) | + (“+” indicates greater than 50% inhibition at 10 μM) | + (“+” indicates greater than 50% inhibition at 10 μM) | − (“−” indicates less than 50% inhibition at 10 μM) | 
3 | NCCCC(=O)NC1C(OCc2ccc3ccccc3c2)OC(COCc2ccc3ccccc3c2)C(O)C1OCc1ccccc1 (stereo not shown) [compound 396] |  | + (“+” indicates greater than 50% inhibition at 10 μM) | − (“−” indicates less than 50% inhibition at 10 μM) | − (“−” indicates less than 50% inhibition at 10 μM) | + (“+” indicates greater than 50% inhibition at 10 μM) | + (“+” indicates greater than 50% inhibition at 10 μM) | + (“+” indicates greater than 50% inhibition at 10 μM) | − (“−” indicates less than 50% inhibition at 10 μM) | − (“−” indicates less than 50% inhibition at 10 μM) | − (“−” indicates less than 50% inhibition at 10 μM) | − (“−” indicates less than 50% inhibition at 10 μM) | − (“−” indicates less than 50% inhibition at 10 μM) |  |  |  | 
4 | NCCCC(=O)NC1C(OCc2ccc3ccccc3c2)OC(COCc2ccccc2)C(O)C1OCc1ccccc1 (stereo not shown) [compound 397] | − (“−” indicates less than 50% inhibition at 10 μM) | − (“−” indicates less than 50% inhibition at 10 μM) | − (“−” indicates less than 50% inhibition at 10 μM) | − (“−” indicates less than 50% inhibition at 10 μM) | + (“+” indicates greater than 50% inhibition at 10 μM) | + (“+” indicates greater than 50% inhibition at 10 μM) |  | + (“+” indicates greater than 50% inhibition at 10 μM) | − (“−” indicates less than 50% inhibition at 10 μM) |  | − (“−” indicates less than 50% inhibition at 10 μM) |  |  | − (“−” indicates less than 50% inhibition at 10 μM) |  | − (“−” indicates less than 50% inhibition at 10 μM)
5 | NCCCC(=O)NC1C(OCc2ccc3ccccc3c2)OC(COCc2ccc(Cl)cc2)C(O)C1OCc1ccccc1 (stereo not shown) [compound 398] | − (“−” indicates less than 50% inhibition at 10 μM) | + (“+” indicates greater than 50% inhibition at 10 μM) | − (“−” indicates less than 50% inhibition at 10 μM) | − (“−” indicates less than 50% inhibition at 10 μM) | + (“+” indicates greater than 50% inhibition at 10 μM) | + (“+” indicates greater than 50% inhibition at 10 μM) | + (“+” indicates greater than 50% inhibition at 10 μM) | − (“−” indicates less than 50% inhibition at 10 μM) | − (“−” indicates less than 50% inhibition at 10 μM) | − (“−” indicates less than 50% inhibition at 10 μM) | − (“−” indicates less than 50% inhibition at 10 μM) |  |  |  |  | 
